Experimental data published in article PMC10784557, “In silico and in vitro prediction of new synthesized N-heterocyclic compounds as anti-SARS-CoV-2” (Scientific Reports, 2024).
In brackets after ≈: the same amount, converted by molar mass.

Key:
in vitro = conditions: African green monkey
[1] = tested on: SARS-CoV-2 (hCoV-19/Egypt/NRC-03/2020); experiment: Inhibitory concentration 50 (IC50) determination, virus-induced cytopathic effect, crystal violet; assay type: cell-based; conditions: Severe acute respiratory syndrome coronavirus 2, Vero C1008; Vero-E6 cells infected with hCoV-19/Egypt/NRC-03/2020, 72 h
Method: In 96-well tissue culture plates, 2.4 × 10^4 Vero-E6 cells were distributed in each well and incubated overnight at a humidified 37 °C incubator under 5%CO2 condition. The cell monolayers were then washed once with 1 × PBS and subjected to virus adsorption (hCoV-19/Egypt/NRC-03/2020 (Accession Number on GSAID: EPI_ISL_430820)) for 1 h at room temperature (RT). More details were provided in Supplementary Information.
3.4.Inhibitory concentration 50 (IC50) determination
In 96-well tissue culture plates, 2.4×10^4 Vero-E6 cells were distributed in each well and incubated overnight at a humidified 37°C incubator under 5%CO2 condition. The cell monolayers were then washed once with 1x PBS and subjected to virus adsorption (hCoV-19/Egypt/NRC-03/2020 (Accession Number on GSAID: EPI_ISL_430820)) for 1 h at room temperature (RT). The cell monolayers were further overlaid with 100μl of DMEM containing varying concentrations of the test compounds. Following incubation at 37°C in 5% CO2 incubator for 72 h, the cells were fixed with 100 μl of 4% paraformaldehyde for 20 min and stained with 0.1% crystal violet in distilled water for 15 min at RT. The crystal violet dye was then dissolved using 100 μl absolute methanol per well and the optical density of the color is measured at 570 nm using Anthos Zenyth 200rt plate reader (Anthos Labtec Instruments, Heerhugowaard, Netherlands). The IC50 of the compound is that required to reduce the virus -induced cytopathic effect (CPE) by 50%, relative to the virus control.

With `N=c1oc2ccccc2cc1-c1nnc(-c2cccnc2)o1` [Compound 5, 3-(5-(pyridin-3-yl)-1,3,4-oxadiazol-2-yl)-2H-chromen-2-imine] the CC50 at 24 h (in vitro) was 312 µg/mL (≈ 1070 µM) and the IC50 [1] was 55 µg/mL (≈ 189 µM).
`C(=Nc1nnc(-c2cccnc2)s1)c1c[nH]c2ccccc12` [Compound 11, 1-(1H-indol-3-yl)-N-(5-(pyridin-3-yl)-1,3,4-thiadiazol-2-yl)methanimine] showed a CC50 at 24 h (in vitro) of 552 µg/mL (≈ 1810 µM) and an IC50 [1] of 216 µg/mL (≈ 707 µM).
`Clc1nc2ccccc2cc1C=Nc1nnc(-c2cccnc2)s1` [Compound 12, 1-(2-chloroquinolin-3-yl)-N-(5-(pyridin-3-yl)-1,3,4-thiadiazol-2-yl)methanimine] showed a CC50 at 24 h (in vitro) of 512 µg/mL (≈ 1450 µM) and an IC50 [1] of 120 µg/mL (≈ 341 µM).
